Measurements taken from ChEMBL document CHEMBL1201862, “PubChem BioAssay data set” (2004).
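Where inhibition never reached the appropriate level, the endpoint shown equals the highest concentration tested. Otherwise, values were interpolated linearly from a five-concentration, 48-hour dose response in 96-well plates. GI50 is the concentration that inhibits growth by half.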 The source made the active and inactive calls. Rule as the data show it: active = GI50 up to about 1.1 µM and inactive = higher.

Legend:
Assay in all cases: NCI tumour cell line growth inhibition, 48 h
786-0 = test system: 786-0
A498 = test system: A498
CAKI-1 = test system: CAKI-1
EKVX = test system: EKVX
HCT-15 = test system: HCT-15
Hs-578T = test system: Hs-578T
LOX IMVI = test system: LOX IMVI
M14 = test system: M14
MDA-N = test system: MDA-N
OVCAR-3 = test system: OVCAR-3
PC-3 = test system: PC-3
SF-295 = test system: SF-295
SF-539 = test system: SF-539
SK-MEL-28 = test system: SK-MEL-28
SN12C = test system: SN12C
SNB-75 = test system: SNB-75
SR = test system: SR
SW-620 = test system: SW-620
NCI-H226 = test system: NCI-H226

| SMILES | GI50 (786-0) | GI50 (A498) | GI50 (CAKI-1) | GI50 (EKVX) | GI50 (HCT-15) | GI50 (Hs-578T) | GI50 (LOX IMVI) | GI50 (M14) | GI50 (MDA-N) | GI50 (OVCAR-3) | GI50 (PC-3) | GI50 (SF-295) | GI50 (SF-539) | GI50 (SK-MEL-28) | GI50 (SN12C) | GI50 (SNB-75) | GI50 (SR) | GI50 (SW-620) | GI50 (NCI-H226) |
| --- | --- | --- | --- | --- | --- | --- | --- | --- | --- | --- | --- | --- | --- | --- | --- | --- | --- | --- | --- |
| O=C(Oc1ccc2c(c1)CN(Cc1ccccc1)CO2)c1ccccc1 | 16.9 µM (inactive) | 17.3 µM (inactive) | 20 µM (inactive) | 16.7 µM (inactive) | 16.9 µM | 23.7 µM (inactive) | 17.1 µM (inactive) | 18 µM (inactive) | 16.8 µM (inactive) | 15.4 µM (inactive) | 15.9 µM (inactive) | 17.8 µM (inactive) | 17.3 µM (inactive) | 21.4 µM (inactive) | 17.1 µM (inactive) | 17.1 µM (inactive) | 18.2 µM (inactive) | 22.8 µM (inactive) | – |
| COc1ccc(-c2cc3cc(Cl)cc(Cl)c3oc2=O)cc1OC | 35.3 µM (inactive) | 79.1 µM (inactive) | > 100 µM (inactive) | 92.9 µM (inactive) | 48.8 µM | 31.4 µM (inactive) | > 100 µM (inactive) | 60.3 µM (inactive) | 94 µM (inactive) | 29.4 µM (inactive) | 46.9 µM (inactive) | 48.5 µM (inactive) | 81.7 µM (inactive) | 94.2 µM (inactive) | 39.8 µM (inactive) | – | 82 µM (inactive) | > 100 µM (inactive) | 43.9 µM (inactive) |
| COc1cccc(Nc2nc(C)c([N+](=O)[O-])c(Nc3cccc(OC)c3)n2)c1 | 51.9 µM (inactive) | 9.35 µM (inactive) | – | 6.35 µM (inactive) | 18.4 µM | 50.1 µM (inactive) | 16.1 µM (inactive) | 10.4 µM (inactive) | 17.9 µM (inactive) | 12.9 µM (inactive) | 12.4 µM (inactive) | < 0.01 µM (active) | 29 µM (inactive) | 39.5 µM (inactive) | 54.3 µM (inactive) | 0.313 µM (active) | 7.76 µM (inactive) | > 100 µM (inactive) | 40.8 µM (inactive) |
| O=S(=O)(c1ccccc1)c1ccc(/N=N/O)nc1 | > 100 µM (inactive) | > 100 µM (inactive) | > 100 µM (inactive) | > 100 µM (inactive) | > 100 µM | > 100 µM (inactive) | – | > 100 µM (inactive) | > 100 µM (inactive) | > 100 µM (inactive) | > 100 µM (inactive) | > 100 µM (inactive) | > 100 µM (inactive) | > 100 µM (inactive) | > 100 µM (inactive) | 62.2 µM (inactive) | > 100 µM (inactive) | > 100 µM (inactive) | > 100 µM (inactive) |
| Cn1nnnc1SC(F)(F)c1nc2ccccc2o1 | > 100 µM (inactive) | > 100 µM (inactive) | > 100 µM (inactive) | – | > 100 µM | > 100 µM (inactive) | – | > 100 µM (inactive) | > 100 µM (inactive) | > 100 µM (inactive) | > 100 µM (inactive) | > 100 µM (inactive) | > 100 µM (inactive) | > 100 µM (inactive) | > 100 µM (inactive) | 52.1 µM (inactive) | > 100 µM (inactive) | > 100 µM (inactive) | > 100 µM (inactive) |
| CC(=O)Oc1c2c(c3n(c1=O)CCCC3)C(=O)N(c1ccccc1)C2=O | > 100 µM (inactive) | – | > 100 µM (inactive) | 94 µM (inactive) | 59 µM | > 100 µM (inactive) | > 100 µM (inactive) | > 100 µM (inactive) | 52.8 µM (inactive) | 86.7 µM (inactive) | 46.5 µM (inactive) | 61 µM (inactive) | > 100 µM (inactive) | > 100 µM (inactive) | 83.2 µM (inactive) | 87.5 µM (inactive) | > 100 µM (inactive) | > 100 µM (inactive) | 60 µM (inactive) |
| CCCCCCCC/C=C(\Br)C(O)C(Br)Br (stereo not given) | 18.5 µM (inactive) | 31 µM (inactive) | 19.5 µM (inactive) | 28.2 µM (inactive) | 20.6 µM | 22.8 µM (inactive) | 19.9 µM (inactive) | 22.7 µM (inactive) | 21.8 µM (inactive) | 17.4 µM (inactive) | 38.1 µM (inactive) | 18 µM (inactive) | – | 29.2 µM (inactive) | 17.3 µM (inactive) | 36 µM (inactive) | 40.8 µM (inactive) | 16.3 µM (inactive) | – |
| C=C1CCCC(C)(C)[C@H]1C/C=C1\CCOC1=O | 14.7 µM (inactive) | 17.2 µM (inactive) | 16.6 µM (inactive) | 15.9 µM (inactive) | 14.5 µM | 16.9 µM (inactive) | 11.5 µM (inactive) | 17.5 µM (inactive) | 17.9 µM (inactive) | 15 µM (inactive) | 16.9 µM (inactive) | 17.1 µM (inactive) | 17.2 µM (inactive) | 16.1 µM (inactive) | 18.2 µM (inactive) | – | 12.4 µM (inactive) | 18.7 µM (inactive) | 9.89 µM (inactive) |
| C=CCOC(=O)C1=C(C)N=C2N[C@H](CCCCCCCCC)C[C@@H]3CCC1N23 (stereo not given in full) | 20 µM (inactive) | – | 34 µM (inactive) | 22.4 µM (inactive) | 21.3 µM | 21.5 µM (inactive) | 21.6 µM (inactive) | 18.7 µM (inactive) | 18.4 µM (inactive) | 19.4 µM (inactive) | 21.6 µM (inactive) | 34.9 µM (inactive) | 19 µM (inactive) | 21.7 µM (inactive) | 18.2 µM (inactive) | 30.5 µM (inactive) | 28.4 µM (inactive) | 28.7 µM (inactive) | 17.9 µM (inactive) |
| COc1ccc2c3c1OC1C(=O)C=CC4(CC2)N(C)CCC314 (stereo not given) | 17.2 µM (inactive) | 13.9 µM (inactive) | 20.1 µM (inactive) | 19.6 µM (inactive) | 18.9 µM | 19.3 µM (inactive) | 11.4 µM (inactive) | 16.6 µM (inactive) | 15.8 µM (inactive) | 19.4 µM (inactive) | 21.7 µM (inactive) | 38 µM (inactive) | – | 22.2 µM (inactive) | 21.4 µM (inactive) | 28.1 µM (inactive) | 7.21 µM (inactive) | 14.2 µM (inactive) | – |
| Cc1c(C(=O)O)c2cc3ccccc3cc2c(=O)n1C | > 10 µM (inactive) | – | – | > 10 µM (inactive) | > 10 µM | > 10 µM (inactive) | > 10 µM (inactive) | > 10 µM (inactive) | > 10 µM (inactive) | > 10 µM (inactive) | > 10 µM (inactive) | > 10 µM (inactive) | > 10 µM (inactive) | – | > 10 µM (inactive) | > 10 µM (inactive) | > 10 µM (inactive) | > 10 µM (inactive) | > 10 µM (inactive) |
| CC(=O)Nc1sc([N+](=O)[O-])cc1S(=O)(=O)c1ccc(Cl)cc1 | 4.66 µM (inactive) | 3.17 µM (inactive) | 3.31 µM (inactive) | 3.59 µM (inactive) | 3.85 µM | 3.56 µM (inactive) | 3.94 µM (inactive) | 2.02 µM (inactive) | 3.92 µM (inactive) | 2.32 µM (inactive) | 2.02 µM (inactive) | 2.14 µM (inactive) | 3.18 µM (inactive) | 11 µM (inactive) | 3.8 µM (inactive) | 2.21 µM (inactive) | – | 5.37 µM (inactive) | 3.96 µM (inactive) |
| O=C(CNc1nccs1)Nn1cnc2ccc(S(=O)(=O)Nc3nccs3)cc2c1=O | > 100 µM (inactive) | – | > 100 µM (inactive) | > 100 µM (inactive) | > 100 µM | > 100 µM (inactive) | > 100 µM (inactive) | > 100 µM (inactive) | > 100 µM (inactive) | > 100 µM (inactive) | > 100 µM (inactive) | > 100 µM (inactive) | > 100 µM (inactive) | > 100 µM (inactive) | > 100 µM (inactive) | > 100 µM (inactive) | 35.6 µM (inactive) | > 100 µM (inactive) | > 100 µM (inactive) |
| NC(Cc1ccccc1)C(=O)OCN1C(=O)C2C3C=CC(C2C1=O)C1C(=O)N(COC(=O)C(N)Cc2ccccc2)C(=O)C31 (stereo not given) | 35.7 µM (inactive) | – | > 100 µM (inactive) | > 100 µM (inactive) | 27.4 µM | > 100 µM (inactive) | 22 µM (inactive) | 92 µM (inactive) | > 100 µM (inactive) | > 100 µM (inactive) | > 100 µM (inactive) | > 100 µM (inactive) | > 100 µM (inactive) | 67.6 µM (inactive) | > 100 µM (inactive) | – | 24.4 µM (inactive) | 28.8 µM (inactive) | > 100 µM (inactive) |
| CC1CCOc2ccc(cc2)/C=N\c2ccc(cc2)-c2ccc(cc2)/N=C\c2ccc(cc2)OCC1 | > 100 µM (inactive) | – | > 100 µM (inactive) | > 100 µM (inactive) | > 100 µM | > 100 µM (inactive) | > 100 µM (inactive) | > 100 µM (inactive) | > 100 µM (inactive) | > 100 µM (inactive) | > 100 µM (inactive) | > 100 µM (inactive) | > 100 µM (inactive) | > 100 µM (inactive) | > 100 µM (inactive) | – | > 100 µM (inactive) | > 100 µM (inactive) | > 100 µM (inactive) |
| CC1=NN(c2nc(N)nc(-c3ccccc3S(N)(=O)=O)n2)C(C)(C)C1 | 8.79 µM (inactive) | 22.4 µM (inactive) | 3.37 µM (inactive) | 36.1 µM (inactive) | 2.76 µM | 74.1 µM (inactive) | 10.3 µM (inactive) | 6.7 µM (inactive) | 26.6 µM (inactive) | 16.3 µM (inactive) | 16.7 µM (inactive) | 5.64 µM (inactive) | 27.4 µM (inactive) | 27.9 µM (inactive) | – | – | 5.85 µM (inactive) | 25.8 µM (inactive) | 9.2 µM (inactive) |
